Laboratory results reported in US9512176B2, “Age inhibitors” (Centre National de la Recherche Scientifique, priority 2005, dated 2016).
Non-standard residues stand in square brackets, D forms with d. Residues, ends and D or L forms follow the SMILES beside them. Dap = NC[C@H](N)C(=O)O

How the values were obtained:
ribonuclease A = assay: SDS PAGE electrophoresis of ribonuclease A incubated with methylglyoxal and inhibitor; assay type: biochemical; conditions: ribonuclease A 10 mg/ml, methylglyoxal 10 mM, inhibitor equimolar, 37° C., 48 hours
Procedure: Ribonuclease A and lysozyme (10 mg/ml) are incubated in the presence of methylglyoxal (10 mM) or in the presence of methylglyoxal and one of the inhibitors according to the present invention in an equimolar quantity at 37° C. After 48 hours of incubation, the proteins are analyzed by polyacrylamide gel electrophoresis (8%-16% SDS PAGE gel).
The AGE inhibitors according to the present invention, namely L-DAPA-L-Leu (example 1) and L-DAPA-L-Ile (example 18), or AG (10 mM) are incubated with MG and ribonuclease A for […] at 37° C.

EA.hy 926 cell line = assay: Growth of EA.hy 926 endothelial cells with MG scavengers and/or methylglyoxal (MTT); assay type: cell-based, human
Procedure: The cells used for the test are from the EA.hy 926 cell line, which are endothelial cells obtained by the hybridization of human umbilical vein endothelial cells (HUVECs) with lung cancer cells (A549). The EA.hy 926 endothelial cells are incubated in Dulbecco's modified Eagle's Medium (DMEM) enriched with 10% fetal calf serum. The cells are incubated in 12-well plates. Each well initially contains 100,000 cells. Cell growth is achieved by incubating the cells in 2 ml of culture medium after adding or not adding the various potential inhibitors (1 mM) and/or methylglyoxal (600 μM) for 48 hours at 37° C. in a moist atmosphere with 5% CO2.
The number of cells is evaluated in the following way:
The cells are stained using the (4,5-dimethylthiazol-2-yl)-2,5-diphenyltetrazolium bromide (MTT) assay. MTT penetrates in the cell where it is converted into formazan. The quantity of formazan formed is proportional to the number of living cells.
The results are expressed as a relative percentage of the number of cells after treatment compared to the number of control cells without treatment [100*OD (treated cells)/OD (control cells)]. Detection is carried out by UV/visible spectrophotometry at 570 nm.
Principle: MTT (yellow) penetrates the cell and is converted into an insoluble blue compound, formazan, by cleavage of its tetrazolium rings by the mitochondrial dehydrogenase enzymes of living cells. Formazan is solubilized by isopropanol. The number of cells is proportional to the quantity of formazan formed and its absorbance.

glyoxalase I = assay: Glyoxalase I treated with methylglyoxal: non-denaturing electrophoresis and enzymatic activity; assay type: biochemical
Procedure: MG reacts with a protein's lysine and arginine residues, thus altering the charges on the modified polypeptide. […] The exposure of glyoxalase I to MG (10 mM) for 24 hours increases the mobility of the protein toward the positive electrode, a change that is consistent with the loss of positive charges from the ε-amino and guanidino groups and the gain of negative charges.
The incubation of glyoxalase I, a key protein in the α-oxoaldehyde detoxification system, in the presence of methylglyoxal, modifies the protein. This modification causes a change in charge and a 50% decrease in enzymatic activity compared to the control.

Structure (SMILES): CC(C)C[C@H](NC(=O)[C@@H](N)CN)C(=O)O [example 1, L-DAPA-L-Leu.2HCl] (H-[Dap]-Leu-OH)
- protection from structural modifications (dimer form) caused by methylglyoxal (ribonuclease A): provides protection
- cell survival when incubated with MG (EA.hy 926 cell line): 81%
- viability at 1000 µM (EA.hy 926 cell line; Homo sapiens, EA.hy 926, scavenger 1 mM + methylglyoxal 600 μM, 48 hours, relative to untreated control cells, MG alone 24, mean of 3 experiments, read-out: Cells + MG scavengers + Methylglyoxal (B)): 81%
- Difference (B) − (A) (EA.hy 926 cell line; Table 2, cells with scavenger + MG minus cells with scavenger alone): −13
- Cells + MG scavengers (A) (EA.hy 926 cell line; scavenger 1 mM, no methylglyoxal, 48 hours, number of cells relative to untreated control cells, mean of 3 experiments): 94%
- effect against suppression of cell growth by MG (EA.hy 926 cell line; scavenger + methylglyoxal): same trend
- difference between number of cells growing with compound and with MG and compound (EA.hy 926 cell line; values in brackets): −13
- gain of negative charge of glyoxalase I exposed to MG (glyoxalase I; MG 10 mM, 24 hours, non-denaturing electrophoresis): inhibits the gain of negative charge
- inhibition of glyoxalase I enzymatic activity and structural modification by methylglyoxal (glyoxalase I; MG alone: 50% decrease in enzymatic activity): prevents the inhibition exerted by methylglyoxal and protects against structural modifications
